Source: PubChem BioAssay (NCI)
Where a name gives a salt, the structure may show the parent alone.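 Where inhibition never reached the appropriate level, the endpoint shown equals the highest concentration tested. Otherwise, values were interpolated linearly from a five-concentration, 48-hour dose response in 96-well plates. The concentration for full growth arrest is given as TGI.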 Where a SMILES comes first, the peptide text is derived from it. The star is where a group is joined. Tfa = O=C(C(F)(F)F)*

Assays:
Test in all cases: NCI tumour cell line growth inhibition, 48 h
OVCAR-5 ovarian = test system: OVCAR-5 ovarian
OVCAR-3 ovarian = test system: OVCAR-3 ovarian
RXF 393 renal = test system: RXF 393 renal
HT29 colon = test system: HT29 colon
DU-145 prostate = test system: DU-145 prostate
RPMI-8226 leukemia = test system: RPMI-8226 leukemia
MOLT-4 leukemia = test system: MOLT-4 leukemia
NCI-H226 lung = test system: NCI-H226 lung
SW-620 colon = test system: SW-620 colon
SK-OV-3 ovarian = test system: SK-OV-3 ovarian
NCI-H460 lung = test system: NCI-H460 lung
CCRF-CEM leukemia = test system: CCRF-CEM leukemia
U251 CNS = test system: U251 CNS
TK-10 renal = test system: TK-10 renal
A549 NSCLC = test system: A549 NSCLC
HL-60(TB) leukemia = test system: HL-60(TB) leukemia
SF-539 CNS = test system: SF-539 CNS
UACC-62 melanoma = test system: UACC-62 melanoma
HOP-92 NSCLC = test system: HOP-92 NSCLC

| Compound | TGI (OVCAR-5 ovarian) [µM] | TGI (OVCAR-3 ovarian) [µM] | TGI (RXF 393 renal) [µM] | TGI (HT29 colon) [µM] | TGI (DU-145 prostate) [µM] | TGI (RPMI-8226 leukemia) [µM] | TGI (MOLT-4 leukemia) [µM] | TGI (NCI-H226 lung) [µM] | TGI (SW-620 colon) [µM] | TGI (SK-OV-3 ovarian) [µM] | TGI (NCI-H460 lung) [µM] | TGI (CCRF-CEM leukemia) [µM] | TGI (U251 CNS) [µM] | TGI (TK-10 renal) [µM] | TGI (A549 NSCLC) [µM] | TGI (HL-60(TB) leukemia) [µM] | TGI (SF-539 CNS) [µM] | TGI (UACC-62 melanoma) [µM] | TGI (HOP-92 NSCLC) [µM] |
| --- | --- | --- | --- | --- | --- | --- | --- | --- | --- | --- | --- | --- | --- | --- | --- | --- | --- | --- | --- |
| O=C(Nc1nnc(-c2ccccc2)o1)C(SC(=S)N1CCCCC1)c1ccccc1 (stereo not drawn) | 82.9 | 43.4 | > 100 | 70 | 71.6 | > 100 | > 100 | 93.5 | > 100 | > 100 | 34.6 | 14.1 | 87.2 | > 100 | 49.5 | 8.38 | 71.3 | – | – |
| Cc1c(NC(=S)NN)c(=O)n(-c2ccccc2)n1C | > 100 | > 100 | > 100 | > 100 | > 100 | > 100 | > 100 | > 100 | > 100 | > 100 | > 100 | > 100 | > 100 | > 100 | > 100 | > 100 | > 100 | > 100 | – |
| N#CN=C(N)c1sc2nc3c(c(-c4ccc(Br)cc4)c2c1N)CCCC3 | > 100 | – | 60 | 48.8 | 71.9 | 56.5 | > 100 | 42 | > 100 | > 100 | > 100 | > 100 | > 100 | > 100 | > 100 | – | > 100 | 51.3 | 77.5 |
| O=C(/C=C1\N=C(c2ccccc2)N(c2nc3ccc(Sc4ccccc4)cc3[nH]2)C1=O)/C=C/c1ccccc1 | > 100 | > 100 | > 100 | 92.8 | > 100 | 60.9 | > 100 | – | > 100 | > 100 | > 100 | > 100 | 81.3 | 98.2 | > 100 | 54.1 | – | 85.2 | > 100 |
| COc1ccc(/C=C2\CCC(C)C3=C(c4ccc(OC)c(OC)c4)C(C#N)=C(N)OC32)cc1OC (stereo not drawn) | 23.6 | 48.3 | 3.99 | – | > 100 | 5.76 | – | 9.83 | > 100 | 36.4 | 11.1 | 19.2 | > 100 | > 100 | – | 7.75 | – | 7.34 | – |
| CCC1=NC(N/N=C/c2ccco2)=N/C1=C\c1ccccc1O | > 100 | – | > 100 | > 100 | > 100 | > 100 | > 100 | > 100 | > 100 | > 100 | 73.6 | 70.4 | > 100 | > 100 | > 100 | 60.6 | – | 53.6 | > 100 |
| C=CCn1c(=O)c2ccccc2[n+]2c(C)c(C(=O)OCC)sc12 | > 100 | > 100 | > 100 | > 100 | > 100 | > 100 | > 100 | > 100 | > 100 | > 100 | > 100 | > 100 | > 100 | > 100 | > 100 | > 100 | > 100 | > 100 | – |
| CCOC(=O)c1c2c3c(cccc3[nH]c1=O)Sc1ncccc1-2 | 96.6 | > 100 | 94.9 | 94.9 | > 100 | 38.4 | 68.5 | 66.5 | > 100 | > 100 | > 100 | > 100 | 67.3 | > 100 | 85.3 | 86.4 | > 100 | 35.2 | – |
| COc1ccc(Oc2cccc(/C=C3/C(=O)Nc4ccccc43)c2)cc1 | 31.5 | 21.6 | 15.7 | 12.9 | 27.1 | – | 13 | – | 23.2 | 31 | 25 | 22.1 | 14.2 | 29.9 | > 100 | 12.5 | 33.1 | – | 14.3 |
| CC[C@@]1(N(C)C)C(=O)OCc2c1cc1n(c2=O)Cc2cc3ccccc3nc2-1 | > 100 | > 100 | 31 | – | 98.1 | > 100 | – | 90.1 | > 100 | 51.5 | 50.6 | 96.3 | > 100 | > 100 | > 100 | – | – | 56.6 | 69.6 |
| O=S(=O)(O)c1c(Cl)cc(O)c2ncccc12 | > 100 | > 100 | > 100 | > 100 | > 100 | > 100 | > 100 | > 100 | > 100 | – | > 100 | > 100 | > 100 | – | > 100 | – | > 100 | > 100 | > 100 |
| O=C(O)CC(NC(=O)C(F)(F)F)C(=O)NC(Cc1ccc(O)cc1)C(=O)O (stereo not drawn) (Tfa-Asp-Tyr-OH; configuration not given here) | > 50 | > 50 | > 50 | > 50 | > 50 | > 50 | > 50 | > 50 | > 50 | > 50 | > 50 | – | > 50 | > 50 | > 50 | – | > 50 | > 50 | > 50 |
| COC(=O)c1c2c(cc3c1CC1(Cc4cc5c(c(C=O)c4C1)CCCC5)C3)CCCC2 (stereo not drawn) | > 100 | > 100 | > 100 | > 100 | – | > 100 | > 100 | > 100 | – | > 100 | – | – | > 100 | > 100 | > 100 | 59.9 | > 100 | > 100 | > 100 |
| CC(C)(C)OC(=O)NCCCCC(N)C(N)=O (stereo not drawn) | > 100 | > 100 | > 100 | > 100 | > 100 | > 100 | > 100 | > 100 | > 100 | > 100 | > 100 | > 100 | > 100 | > 100 | > 100 | – | > 100 | > 100 | > 100 |
| Oc1ccc(-c2csc(NNC3=NC/C(=C/c4ccc5c(c4)OCO5)S3)n2)cc1O | > 100 | – | – | > 100 | > 100 | – | > 100 | > 100 | > 100 | > 100 | > 100 | – | > 100 | 72.4 | > 100 | – | > 100 | – | > 100 |
| Nc1ccc(S(=O)(=O)Nc2nnc(S(N)(=O)=O)s2)cc1 | > 100 | – | > 100 | > 100 | > 100 | > 100 | > 100 | > 100 | > 100 | > 100 | > 100 | – | > 100 | > 100 | > 100 | > 100 | > 100 | > 100 | > 100 |
| CC(=O)ON(C(C)=O)c1ccc(-c2nc3ccccc3s2)cc1 | 98.6 | 66.7 | > 79.3 | 52.4 | > 77.1 | 55.4 | 49.3 | 27.7 | > 59.9 | > 100 | > 100 | > 100 | > 60.9 | > 100 | > 79 | – | 29.4 | 48.7 | > 81.6 |
| O=C1/C(=C/c2ccccc2)CCCC1CN1CCCCC1 (stereo not drawn) | 33.8 | 3.24 | 3.76 | 2.98 | 27.3 | > 100 | > 100 | 9.87 | 2.64 | 31 | 32.4 | – | 27 | 8.02 | 34.9 | – | 11.7 | 19.7 | 6.05 |
| O=c1cc(NCCCCCO)[nH]c(=O)[nH]1 | > 100 | > 100 | > 100 | > 100 | – | > 100 | > 100 | > 100 | > 100 | > 100 | > 100 | > 100 | > 100 | > 100 | > 100 | > 100 | > 100 | > 100 | > 100 |
| O=P1(O)C=CC2(CCCC2)O1 | > 100 | > 100 | – | > 100 | > 100 | – | – | – | > 100 | > 100 | > 100 | – | > 100 | > 100 | > 100 | > 100 | > 100 | > 100 | > 100 |
| O=C(OCc1ccccc1CN1CCOCC1)c1cccc(Br)c1 | > 100 | 44.3 | > 100 | 29.5 | > 100 | – | – | > 100 | > 100 | > 100 | > 100 | – | > 100 | – | > 100 | – | > 100 | > 100 | > 100 |
| COc1cc(C=O)ccc1Oc1nnnn1-c1ccccc1 | > 100 | > 100 | > 100 | > 100 | > 100 | 98.2 | 75.1 | 56.7 | > 100 | > 100 | > 100 | 52.4 | > 100 | > 100 | > 100 | – | – | – | > 100 |
| O=c1sc2c(s1)SSSSS2 | > 50 | > 50 | > 50 | > 50 | > 50 | > 50 | 42.3 | > 50 | > 50 | > 50 | > 50 | 42.1 | > 50 | > 50 | > 50 | – | > 50 | > 50 | > 50 |
| NC(Cc1ccc(S(=O)(=O)O)cc1)C(=O)NC(CCCCNC(=O)NCCCCC(NC(=O)C(N)Cc1ccc(S(=O)(=O)O)cc1)C(=O)NC(Cc1ccc(S(=O)(=O)O)cc1)C(=O)O)C(=O)NC(Cc1ccc(S(=O)(=O)O)cc1)C(=O)O (stereo not drawn) | > 100 | > 100 | > 100 | > 100 | > 100 | > 100 | > 100 | > 100 | > 100 | > 100 | > 100 | > 100 | > 100 | > 100 | > 100 | > 100 | > 100 | > 100 | – |
| COc1cc(C2SC(N)=Nc3c2c(C)nn3C(=O)c2ccccc2O)cc(OC)c1OC (stereo not drawn) | > 10 | > 10 | > 10 | > 10 | > 10 | > 10 | > 10 | > 10 | > 10 | > 10 | > 10 | > 10 | > 10 | > 10 | > 10 | – | > 10 | 8.19 | 8.07 |
| CC(=O)[C@@H]1[C@@H](OC(=O)CCC(C)COC2OC(CO)C(O)C(O)C2O)C[C@H]2[C@@H]3CC=C4C[C@@H](OC5OC(CO)C(OC6OC(C)C(O)C(O)C6O)C(O)C5OC5OC(C)C(O)C(O)C5O)CC[C@]4(C)[C@H]3CC[C@]12C (stereo partly drawn) | > 100 | > 100 | > 100 | – | > 100 | > 100 | > 100 | – | > 100 | > 100 | > 100 | > 100 | > 100 | > 100 | > 100 | – | – | > 100 | – |
| COc1cc2c[n+](C)c3c4cc(OC)c(OC)cc4c(OC)cc3c2cc1OC | > 100 | > 34.6 | > 100 | > 46.7 | > 65.3 | > 100 | – | – | > 100 | > 100 | > 100 | > 100 | > 51.8 | > 100 | > 100 | – | > 100 | > 100 | – |
